Patent publication US10421743B2, “Tetrahydroisoquinolines as PRMT5 inhibitors” (CTXT PTY LTD, priority 2016, dated 2019)
Where two headings read alike, the source gives them in different places.

What was measured:
[1] = target: Full-length PRMT5 enzyme co-expressed with His6-MEP50 (Homo sapiens (Human), UniProt O14744); test: PRMT5 Biochemical Assay (Transcreener EPIGEN methyltransferase, fluorescence polarisation); details: histone H4 derived peptide substrate 1 μM, 1 μM S-Adenosyl methionine, 4 hours at 37 degree Celsius
Method: Compounds of the Invention may be Tested for In Vitro Activity in the Following Assay:
A histone H4 derived peptide is used as substrate (amino acid sequence: […]NH2). Full-length PRMT5 enzyme (NCBI Reference sequence NP_006100.2) was co-expressed with His6-MEP50 in insect cells and purified via Nickel immobilized metal affinity and gel filtration chromatography (“the enzyme”).
The 6 μL reactions are run in Greiner brand black 384-well low volume assay plates. All reactions contained assay buffer (phosphate buffered saline, 0.01% (v/v) Tween-20, 0.01% (w/v) albumin from chicken egg white, 1 mM Dithiothreitol, 1 μM peptide substrate, 1 μM S-Adenosyl methionine, and 15 ng/reaction enzyme, with the enzyme being omitted from negative control reactions. Compounds were added in a volume of 100 nL from dilution series prepared in DMSO, positive and negative control reactions receiving the same volume DMSO without compound. The plates were sealed with adhesive seals and incubated for 4 hours at 37 degree Celsius. Reaction progress was measured using the Transcreener™ EPIGEN methyltransferase assay (BellBrook Labs, Madison, Wis.) as recommended by the manufacturer. To each reaction 2 μL detection mix were added, containing coupling enzymes, fluorescence polarisation tracer, and AMP antibody. Plates were incubated for 90 minutes before being read on a Perkin Elmer EnVision™ plate reader in fluorescence polarisation mode. IC50 values were obtained from the raw readings by calculating percent inhibition (% I) for each reaction relative to controls on the same plate (% I=(I−CN)/(CP−CN) where CN/CP are the averages of the negative/positive reactions, respectively), then fitting the % I data vs. compound concentration [I] to % I=(A+((B−A)/(1+((C/[I])^D)))) where A is the lower asymptote, B is the upper asymptote, C is the IC50 value, and D is the slope.

[2] = system: PRMT5 (symmetrical dimethylation of arginine in TE11 cells); test: PRMT5 Biomarker Assay (symmetrical dimethylation of arginine, Di-Methyl Histone H4 Arginine 3); type: cell-based; details: Homo sapiens, TE-11, 72 hours incubation, anti-Di-Methyl Histone H4 Arginine 3 antibody
Method: Compounds of the Invention may be Tested for Potency to Inhibit Symmetrical Dimethylation of Arginine in the Following Assay:
The cell line TE11 was seeded at a density of 6,000 cells per well in 96 well optical quality tissue culture plates in DME medium and 10% foetal bovine serum, and allowed to adhere for 5 hours under standard culture conditions (37 degree Celsius, 5% CO2). Compound dilutions prepared in DMSO were added to the medium, with negative control wells reserved for treatment with DMSO only and maximum inhibition controls receiving a potent PRMT5 inhibitor compound at 1 μM concentration. After incubation for 72 hours, the cells were fixed with 3.7% formaldehyde in PBS for 30 minutes at room temperature, washed with phosphate buffer saline and blocked with Odyssey blocking buffer (LI-COR, Lincoln, Nebr.). Rabbit anti-Di-Methyl Histone H4 Arginine 3 specific antibody (Epigentek) in Odyssey blocking buffer was added and incubated for 14 hours at 4 degree Celsius. After washing, anti-rabbit secondary antibody labelled with Alexa647 dye (LifeTechnologies) and Hoechst 33342 (1 μg/mL, SigmaAldrich) were added for 1 hour incubation. Plates were washed and read on a PerkinElmer Envision 2103 in fluorescence intensity scanning mode (24 scans across the well area). The plates were imaged on a PerkinElmer Phenix high content imaging platform. Using a Columbus image analysis pipeline, individual nuclei were located by Hoechst 33342 stain and the methylation level was calculated from the Alexa647-related intensity in the same area. IC50 values were obtained from the mean Alexa647-related intensity per cell by calculating percent inhibition (% I) for each well relative to controls on the same plate (% I=(I−CN)/(CP−CN) where CN/CP are the averages of the negative/maximum inhibition controls, respectively), then fitting the % I data vs. compound concentration [I] to % I=(A+((B−A)/(1+((C/[I])^D)))) where A is the lower asymptote, B is the upper asymptote, C is the IC50 value, and D is the slope.

[3] = target: Full-length (FL)-PRMT5-MEP50 enzyme complex (Homo sapiens (Human), UniProt O14744); test: PRMT5-MEP50 Enzyme Methylation Assay (SAMDI); type: biochemical; details: 0.5 nM PRMT5-MEP50, 75 nM biotinylated H4R3(Me1) peptide, 15 μM SAM, 150 minutes at 37° C.
Method: PRMT5-MEP50 Enzyme Methylation Assay
PRMT5/MEP50 biochemical assay is a direct measurement of the methylation activity of the enzyme complex on a short peptide substrate derived from the N-terminus of H4 histone. Methylation experiment is performed with recombinant protein. The assessment of inhibitory effect (IC50) of small molecules is measured by the effectiveness of the compounds to inhibit this reaction.
In this assay, the potency (IC50) of each compound was determined from a twenty-point (1:2 serial dilution; top compound concentration of 100000 nM) titration curve using the following outlined procedure. To each well of a white ProxiPlus 384 well-plate, 100 nL of compound (1% DMSO in final assay volume of 10 μL) was dispensed, followed by the addition of 8 μL of 1× assay buffer (50 mM Bicine pH 8.0, 1 mM DTT, 0.004% Tween20, 0.01% BSA) containing 0.5 nM of Full-length (FL)-PRMT5-MEP50 enzyme complex (recombinant proteins from baculovirus-transfected Sf21 cells: FL-PRMT5; MW=[…] and FL-MEP50; MW=38614). Plates were sealed and placed in a 37° C. humidified chamber for 30 minutes pre-incubation with compounds. Subsequently, each reaction was initiated by the addition of 2 μL 1× assay buffer containing 75 nM biotinylated H4R3(Me1) peptide, and 15 μM S-(5′-Adenosyl)-L-Methionine Chloride (SAM). The final reaction in each well of 10 μL consists of 0.5 nM PRMT5-MEP50,75 nM biotinylated-peptide, and 15 μM SAM. Methylation reactions were allowed to proceed for 150 minutes in a sealed plate at 37° C. Reactions were immediately quenched by the addition of 1 μL of 10% formic acid. Plates were then frozen and shipped to SAMDI™ Tech Inc. to determine the percent conversion from […]. IC50 values were determined by 7 parameters biphasic fit model plotting the percent product conversion vs. (Log10) compound concentrations.

[4] = system: PRMT5 (symmetric dimethylation of arginine (SDMA) in MCF-7 cells); test: PRMT5 Cell Target Engagement (TE) Assay (SDMA, high content imaging); type: cell-based; details: Homo sapiens, MCF7, 72 h, treated for 3 days, top compound concentration of 10000 nM
Description: PRMT5 Cell Target Engagement (TE) Assay
The PRMT5 TE assay is a biomarker assay for identifying compounds that inhibit symmetric dimethylation of arginine (SDMA) of PRMT5 substrates. This assay detects symmetrically dimethylated nuclear proteins using high content imaging technology. Detection of the expression of symmetrically dimethylated nucleo proteins is through a mixture of primary rabbit monoclonal antibodies to SDMA (CST 13222), which in turn recognized by an Alexafluor 488 dye-conjugated anti-rabbit IgG secondary antibody. The IN Cell Analyzer 2200 measures nuclear Alexafluor 488 fluorescent dye intensity that is directly related to the level of expression of symmetrically dimethylated nuclear proteins at the single cell level. Nuclear AF488 dye intensities are compared to the mean value for DMSO treated cells […] to report percent of inhibition for each compound-treated well.
In this assay, the cell potency (EC50) of each compound was determined from a ten point (1:3 serial dilution; top compound concentration of 10000 nM) titration curve using the following outlined procedure. Each well of a BD falcon collagen coated black/clear bottom 384-well plate was seeded with 4000 MCF-7 cells and allowed to attach for 5 hours. Media from cell plate was removed at 0.5 mm above the bottom of the plate and replaced with 30 μL of fresh media containing 1.2× compounds in 0.1% DMSO. Cells were treated for 3 days in 37° C. CO2 incubator. On day 3, cells were fixed with Cytofix, permeabilized with 0.4% Triton-X-100/Cytofix, and washed with D-PBS without Ca/Mg. Cells were blocked with Licor Odessey blocking reagent for one hour at room temperature, followed by incubation with anti-SDMA (1:1000) antibody at 4° C. overnight. 1° antibody was removed, followed by three washings with DPBS without Ca/Mg and 0.05% Tween20. Hoechst (5 μg/ml), Cell Mask deep stain (1:2000) and Alexa488-conjugated goat anti-rabbit IgG (2 μg/mL) was added for 1 hour at room temperature. A final washing step (three washes) was performed before sealing plate for imaging on In Cell Analyzer 2200. Images from analyzer were uploaded to Columbus (at WP) for image analysis. IC50 values were determined by 4 parameters robust fit of percent fluorescence units vs. (Log10) compound concentrations.

[5] = Enzyme Methylation Assay (EC50—1, nM), first EC50 of biphasic fit
[6] = first EC50 of biphasic fit, read-out: Enzyme Methylation Assay (EC50—1)
[7] = second EC50 of biphasic fit, read-out: Enzyme Methylation Assay (EC50—2)

Chain of Full-length (FL)-PRMT5-MEP50 enzyme complex (O14744 whole entry): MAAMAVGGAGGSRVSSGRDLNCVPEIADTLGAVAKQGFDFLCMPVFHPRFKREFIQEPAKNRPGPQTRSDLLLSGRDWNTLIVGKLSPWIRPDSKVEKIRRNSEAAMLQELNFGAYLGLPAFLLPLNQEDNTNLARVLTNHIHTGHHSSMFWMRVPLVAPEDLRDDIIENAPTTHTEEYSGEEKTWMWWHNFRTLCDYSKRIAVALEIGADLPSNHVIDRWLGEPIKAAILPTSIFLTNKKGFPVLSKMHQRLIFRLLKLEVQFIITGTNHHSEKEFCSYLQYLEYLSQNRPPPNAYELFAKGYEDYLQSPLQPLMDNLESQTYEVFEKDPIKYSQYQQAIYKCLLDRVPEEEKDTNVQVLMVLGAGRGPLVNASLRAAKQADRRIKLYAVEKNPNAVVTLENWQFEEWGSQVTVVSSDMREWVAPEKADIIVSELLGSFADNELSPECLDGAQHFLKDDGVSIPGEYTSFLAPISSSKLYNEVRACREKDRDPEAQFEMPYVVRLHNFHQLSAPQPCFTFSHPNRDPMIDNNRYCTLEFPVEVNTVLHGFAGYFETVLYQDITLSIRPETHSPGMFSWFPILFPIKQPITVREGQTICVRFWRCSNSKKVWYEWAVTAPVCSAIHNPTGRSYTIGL
Chain of Full-length (FL)-PRMT5-MEP50 enzyme complex (Q9BQA1 whole entry partner): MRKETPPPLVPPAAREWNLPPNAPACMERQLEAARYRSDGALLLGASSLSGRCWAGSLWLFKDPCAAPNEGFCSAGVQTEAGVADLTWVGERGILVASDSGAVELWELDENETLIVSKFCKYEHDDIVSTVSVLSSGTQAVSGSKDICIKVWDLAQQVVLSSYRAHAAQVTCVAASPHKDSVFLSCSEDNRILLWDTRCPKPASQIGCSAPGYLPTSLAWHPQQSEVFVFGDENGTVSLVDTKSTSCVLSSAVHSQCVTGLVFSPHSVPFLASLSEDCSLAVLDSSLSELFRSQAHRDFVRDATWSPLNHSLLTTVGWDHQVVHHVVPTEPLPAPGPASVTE
Chain of Full-length PRMT5 enzyme co-expressed with His6-MEP50 (O14744 whole entry): as the sequence (O14744 whole entry) above
Chain of Full-length PRMT5 enzyme co-expressed with His6-MEP50 (Q9BQA1 whole entry partner): as the sequence (Q9BQA1 whole entry partner) above

SMILES | IC50 [1] [nM] | IC50 [2] [nM] | EC50 [3, 5] [nM] | EC50 ([3]; Enzyme Methylation Assay (EC50—2, nM), second EC50 of biphasic fit) [nM] | EC50 [4] [nM] | EC50 [3, 6] [nM] | EC50 [3, 7] [nM]
CCOc1cc(C(=O)N2C3CCC2COC3)ccc1C(=O)NC[C@@H](O)[C@@H]1Cc2ccc(OC)cc2CN1 [Example 1, 4-(3-Oxa-8-azabicyclo[3.2.1]octane-8-carbonyl)-2-ethoxy-N—((R)-2-hydroxy-2-((S)-7-methoxy-1,2,3,4-tetrahydroisoquinolin-3-yl)ethyl)benzamide] | 15 | 0.19 | 0.27 | 5 | 19 | – | –
COc1ccc2c(c1)CN[C@H]([C@H](O)CNC(=O)c1cc(NC3COC3)ncn1)C2 [Example 4, N—((R)-2-hydroxy-2-((S)-7-methoxy-1,2,3,4-tetrahydroisoquinolin-3-yl)ethyl)-6-(oxetan-3-ylamino)pyrimidine-4-carboxamide] | – | – | – | – | – | 21 | 8430
CCOc1cc(-c2nnc(C)o2)ccc1C(=O)NC[C@@H](O)[C@@H]1Cc2ccc(OC)cc2CN1 [Example 5, 2-ethoxy-N-{(2R)-2-hydroxy-2-[(3S)-7-methoxy-1,2,3,4-tetrahydroisoquinolin-3-yl]ethyl}-4-(5-methyl-1,3,4-oxadiazol-2-yl)benzamide] | – | – | – | – | 2150 | 2 | 890
CCOc1cc(-c2nnc(C3CC3)o2)ccc1C(=O)NC[C@@H](O)[C@@H]1Cc2ccc(OC)cc2CN1 [Example 6, 4-(5-cyclopropyl-1,3,4-oxadiazol-2-yl)-2-ethoxy-N-{(2R)-2-hydroxy-2-[(3S)-7-methoxy-1,2,3,4-tetrahydroisoquinolin-3-yl]ethyl}benzamide] | – | – | – | – | 203 | 2 | 781
COc1ccc2c(c1)CN[C@H]([C@H](O)CNC(=O)c1ccc(-c3nnc(C(C)(C)C)o3)cc1)C2 [Example 7] | – | – | – | – | 167 | 3 | 994
COc1ccc2c(c1)CN[C@H]([C@H](O)CNC(=O)c1ccc(-c3ncc4n3CCCC4)cc1)C2 [Example 8] | – | – | – | – | 80 | 0.62 | 225
COc1ccc2c(c1)CN[C@H]([C@H](O)CNC(=O)c1ccc(-c3ncnn3C3CC3)cc1)C2 [Example 9] | – | – | – | – | 70 | 0.56 | 334
O=C(NC[C@@H](O)[C@@H]1Cc2ccc(C(F)F)cc2CN1)c1ccc(C(=O)N2C3CCC2COC3)cc1 [Example 11] | – | – | 0.93 | – | 135 | – | 451
COc1ccc2c(c1)CN[C@H]([C@H](O)CNC(=O)c1cccnc1)C2 [Example 12] | – | – | – | – | 4640 | 32 | 11600
CCOc1ncccc1C(=O)NC[C@@H](O)[C@@H]1Cc2ccc(OC)cc2CN1 [Example 13] | – | – | – | – | 4660 | 21 | 8080
COc1ccc2c(c1)CN[C@H]([C@H](O)CNC(=O)c1ccccc1Cl)C2 [Example 14] | – | – | – | – | 3200 | 12 | 4280
CC(=O)N1CCC(Nc2cc(C(=O)NC[C@@H](O)[C@@H]3Cc4ccc(C(F)(F)F)cc4CN3)ncn2)CC1 [Example 15] | – | – | – | – | 2190 | 23 | 7230
CCc1ccc2c(c1)CN[C@H]([C@H](O)CNC(=O)c1cc(NC3CCN(C(C)=O)CC3)ncn1)C2 [Example 16] | – | – | – | – | 846 | 7 | 3700
CC(=O)N1CCC(Nc2cc(C(=O)NC[C@@H](O)[C@@H]3Cc4ccc(C#N)cc4CN3)ncn2)CC1 [Example 17] | – | – | – | – | 10000 | 180 | 34900
COC(=O)N1CCC(Nc2cc(C(=O)NC[C@@H](O)[C@@H]3Cc4ccc(OC)cc4CN3)ccn2)CC1 [Example 18] | – | – | – | – | 19 | 0.79 | 185
